The text below walks through data of article PMC5522529, “Mechanisms of Paradoxical Activation of AMPK by the Kinase Inhibitors SU6656 and Sorafenib” (Cell Chemical Biology, 2017).

SMILES strings stand for the structures.

Assay [1] deals with T1, AMPK-γ1 complexes (WT) (Homo sapiens, UniProt P54619).
T1 construct: Plasmid encoding full-length human AMPK-γ1; expressed in transfected cells; host or cells: HeLa
In words: Activation by LKB1 of FLAG-AMPK-γ1 (WT) complexes precipitated from HeLa cells. The following applies: AMP 200 μM or SU6656 3 μM, 10 min. The assay is classed as biochemical. From the text: (B) Effect of ATP concentration on kinase activity of α2-KD in the presence of increasing concentrations of SU6656. Results (mean, n = 2) were fitted to the equation Y= (Vmax × X)/(Km × (1 + I/Ki) + X), where Y is the activity, X is the ATP concentration, I is the concentration of SU6656, and Ki is the inhibitory constant for SU6656. […] (D and E) Effect of increasing concentrations of SU6656 on activity (D) and Thr172 phosphorylation (E) induced by LKB1 with unphosphorylated α2-KD (WT/AT mutant). Results in (D) are mean ± SEM (n = 3); and were fitted to same equation as Figure 4C. […] See also Figure S3. (F) Effect of AMP (2 mM) and SU6656 on inactivation of AMPK by PP2Cα in the presence of 5 mM ATP. […] (G) Effects of AMP or SU6656 on activation (top) and Thr172 phosphorylation (bottom) by LKB1 of AMPK-γ1 complexes expressed in HeLa cells. FLAG-tagged AMPK-γ1, either wild-type (WT) or R299G mutant (RG), was expressed in HeLa cells and AMPK complexes precipitated using anti-FLAG antibody. The complexes (which have low basal phosphorylation due to lack of LKB1 in HeLa cells) were incubated with or without a limiting amount of LKB1, AMP (200 μM) or SU6656 (3 μM) for 10 min and AMPK activity determined. […]

Assay [2] deals with Erk1/Erk2. In words: Erk1/Erk2 phosphorylation in HEK293 cells (western blot). Type of assay: cell-based, human. The note with it: SU6656 100 μM, PP2 100 nM. A general note: In western blotting, separated proteins are transferred to a membrane and probed.
The test system of assay [3] is LKB1 versus AMPK. Further details: method as in MRC Kinase Inhibitor Database. The note with it: ref MRC Kinase Inhibitor Database; cited from earlier work.
The subject of assay [4] is AMPK-related kinases SIK1, SIK2, SIK3, SNARK, MARK2/3 and MARK4. The assay is described as follows: AMPK-related kinase activity in HeLa cells stably expressing LKB1. Type of assay: cell-based, human. The following applies: HeLa cells expressing LKB1, 100 μM, 1 hr. The procedure: (§1) Figure 1 SU6656 Activates AMPK but Not AMPK-Related Kinases (A) HEK293 cells were incubated with the indicated concentrations of SU6656 or berberine (300 μM) for 1 hr; total AMPK activity was assayed in immunoprecipitates (top; mean ± SEM, n = 4), and phosphorylation of AMPK (Thr172), ACC (Ser80), and Raptor (Ser792) analyzed by western blotting (bottom; n = 2). (B) HEK293 cells were incubated with 100 μM SU6656 (1 hr), AMPK complexes containing α1, α2, β1, and β2 immunoprecipitated using isoform-specific antibodies, and AMPK activity measured (mean ± SEM, n = 4). (C) HeLa cells stably expressing LKB1 ([Fogarty et al., 2010]) were incubated with 100 μM SU6656 for 1 hr, AMPK or individual ARKs immunoprecipitated, and kinase assays carried out (antibodies that distinguish MARK2/MARK3 were not available, so they were assayed together). Results are means ± SEM (n = 2). In all panels, asterisks indicate significant differences from controls without SU6656. *p < 0.05, **p < 0.01, ****p < 0.0001. […]

The subject of assay [5] is AMPK. Further details: method as in Bain et al., 2007. The note with it: ref Bain et al., 2007; cited from earlier work.
Assay [6] relates to mice. More on the design: method as in Yamada et al., 2010. The note with it: ref Yamada et al., 2010; cited from earlier work.
Assay [7] has as its target T2, α2-KD (Homo sapiens, UniProt P54646).
T2 construct: amplifying residues 1-310 with 5' BamH1 and 3' Xho1 sites; made in house; host or cells: bacteria
The assay is described as follows: Activation and phosphorylation of unphosphorylated α2-KD (WT) by LKB1. The assay is classed as biochemical. From the text:
(B) Effect of ATP concentration on kinase activity of α2-KD in the presence of increasing concentrations of SU6656. Results (mean, n = 2) were fitted to the equation Y= (Vmax × X)/(Km × (1 + I/Ki) + X), where Y is the activity, X is the ATP concentration, I is the concentration of SU6656, and Ki is the inhibitory constant for SU6656. […] (D and E) Effect of increasing concentrations of SU6656 on activity (D) and Thr172 phosphorylation (E) induced by LKB1 with unphosphorylated α2-KD (WT/AT mutant). Results in (D) are mean ± SEM (n = 3); and were fitted to same equation as Figure 4C. […] See also Figure S3. (F) Effect of AMP (2 mM) and SU6656 on inactivation of AMPK by PP2Cα in the presence of 5 mM ATP. […] (G) Effects of AMP or SU6656 on activation (top) and Thr172 phosphorylation (bottom) by LKB1 of AMPK-γ1 complexes expressed in HeLa cells. FLAG-tagged AMPK-γ1, either wild-type (WT) or R299G mutant (RG), was expressed in HeLa cells and AMPK complexes precipitated using anti-FLAG antibody. The complexes (which have low basal phosphorylation due to lack of LKB1 in HeLa cells) were incubated with or without a limiting amount of LKB1, AMP (200 μM) or SU6656 (3 μM) for 10 min and AMPK activity determined.
We next used unphosphorylated α2-KD and tested the effect of SU6656 on its activation and phosphorylation by LKB1.

Assay [8] concerns purified rat liver AMPK. The assay is described as follows: Kinase assay of purified rat liver AMPK at 2 mM ATP. The assay is classed as biochemical. The note with it: ± 1 mM AMP.
Assay [9] concerns AMPK. The assay is described as follows: AMPK activity in HeLa cells stably expressing LKB1. The assay is classed as cell-based, human. The note with it: HeLa cells expressing LKB1, 100 μM, 1 hr. How it is done: as §1

T2 sequence (P54646 1-310): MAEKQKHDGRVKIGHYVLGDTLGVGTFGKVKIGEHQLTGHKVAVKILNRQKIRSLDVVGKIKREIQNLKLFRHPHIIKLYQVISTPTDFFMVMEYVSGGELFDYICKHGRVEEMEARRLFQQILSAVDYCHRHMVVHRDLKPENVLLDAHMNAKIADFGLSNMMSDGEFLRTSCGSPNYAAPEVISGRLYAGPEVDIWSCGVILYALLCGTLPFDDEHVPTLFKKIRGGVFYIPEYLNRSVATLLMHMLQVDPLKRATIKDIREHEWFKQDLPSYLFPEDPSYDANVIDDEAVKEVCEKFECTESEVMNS
T1 sequence (P54619 whole entry, one chain of several): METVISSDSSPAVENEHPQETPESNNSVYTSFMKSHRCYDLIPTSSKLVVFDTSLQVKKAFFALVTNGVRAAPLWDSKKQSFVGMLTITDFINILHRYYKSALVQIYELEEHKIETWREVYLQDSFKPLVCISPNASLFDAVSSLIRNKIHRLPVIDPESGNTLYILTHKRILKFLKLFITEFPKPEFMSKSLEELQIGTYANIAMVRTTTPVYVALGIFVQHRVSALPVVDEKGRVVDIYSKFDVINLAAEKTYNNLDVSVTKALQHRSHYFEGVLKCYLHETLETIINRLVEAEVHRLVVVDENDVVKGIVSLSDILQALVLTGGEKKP

What is called Kd is a measure of binding affinity in units of concentration. `CN(C)S(=O)(=O)c1ccc2c(c1)/C(=C/c1cc3c([nH]1)CCCC3)C(=O)N2` [SU6656]: the “activation and Thr172 phosphorylation by LKB1” value in assay [1] is “promoted activation and increased Thr172 phosphorylation”. The Erk1/Erk2 phosphorylation result in assay [2] is “reduced phosphorylation of Erk1/Erk2”. Also, in [3], the “potency of LKB1 inhibition relative to AMPK inhibition” value was “inhibition of LKB1 was less potent than that of AMPK”. Besides, the “activity of AMPK-related kinases (ARKs)” value in assay [4] is listed as “none of the ARKs assayed were activated”. For the same compound, the “inhibition of AMPK relative to Src” value in assay [5] is “inhibits AMPK as effectively as Src”. Moreover, in assay [6], the fatty acid oxidation entry is reported as “increased fatty acid oxidation”. In [7] (SU6656 up to 10 μM), the “activation of α2-KD by LKB1” value was 1.9 ± 0.2 fold. The Kd in assay [7] (read-out: half-maximal effect on α2-KD activation by LKB1) came out at 0.2 ± 0.02 µM. The “concentrations inhibiting both basal and AMP-stimulated activity” value in assay [8] was “above 1 μM”. Moreover, in assay [9], the AMPK activity entry is listed as “robustly activated AMPK”.
